Tested on: NCI-H196 complex spheroid viability
Assay: Anticancer human tumor NCI-H196 cell line growth inhibition [LSD1];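 also: spheroids exposed to agents for 7 days before readout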;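 as to viability, T/C: 100% = DMSO vehicle control viability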
Settings: for IC50: curve of first compound; for viability, T/C: stronger effect = lower value
Source text: Multicellular complex tumor spheroid response to LSD1 Inhibitor Iadademstat in combination with a variety of drugs and investigational agents in selected tumor cell lines
The current study was undertaken to assess response to LSD1 inhibitors in combination with standard-of-care drugs and investigational agents in solid tumor complex spheroid models as well as in the K-562 leukemia. Complex spheroids include a stromal component modeled by human endothelial cells (HUVEC) and fibroblasts modeled by human mesenchymal stem cells (MSCs). The concentration ranges selected for each drug and investigational agent were based upon clinically achievable concentrations if the clinical Cmax of the agent was known.
Compounds. The drugs and investigational agents used in this study are listed on Table 1. All of the agents used, including staurosporine (NSC755774) and gemcitabine (NSC613327), were obtained from the Developmental Therapeutics Program, NCI. FDA-approved anticancer drugs are available from the NCI at http://dtp.nci.nih.gov/branches/dscb/oncology_drugset_explanation.html. Drugs and investigational agents were >95% pure by proton nuclear magnetic resonance (NMR) and liquid chromatography/mass spectrometry (LC/MS). Stock solutions were prepared at 400x in DMSO, stored at -70 degrees C, and diluted in fresh medium prior to their use. The final concentration of DMSO in cell culture wells never exceeded 0.25% (v/v). The FDA-approved anticancer drug set is available from the Developmental Therapeutics Program at https://dtp.cancer.gov/organization/dscb/obtaining/available_plates.htm. All drugs and investigational agents were tested over a range starting from a high concentration at or near the clinical Cmax and decreasing in half-log increments. If the clinical Cmax for an agent had not been determined, the highest concentration tested was 10 microM.
Cell Lines. The patient-derived cancer cell (PDC) lines: 292921-168-R-J2-PDC, K24384-001-R-PDC, and 521955-158-R2-J5-PDC pancreatic carcinomas, 556581-035-R-J1 ovarian carcinoma, 324938-238-R-J1-PDC, 855422-203-R-J1-PDC and 883617-216-R-J1-PDC urothelial bladder carcinomas, 743489-274-T-PDC renal cell carcinoma, 138582-R-J1 Merkel cell tumor, K60290-347-R-J1 and K57222-313-R-J1-PDC glioblastomas, 653999-131-R-J2-PDC, LG0703-F948-PDC, and 349418-098-R-PDC non-small cell lung carcinomas, 885512-296-R-J2-PDC, 171881-019-R-J1-PDC breast carcinomas and 186277-243-T-J2-PDC and 233499-124-R-J2-PDC colon carcinomas were obtained from the NCI Patient-Derived Models Repository (PDMR, https://pdmr.cancer.gov). The established cell lines NCI/ADR-RES (RRID:CVCL_14520 and OVCAR-5 (RRID:CVCL_1628) ovarian carcinomas, 786-O (RRID:CVCL_1051) and A498 (RRID:CVCL_A498) renal cell carcinoma, NCI-H211 (ATCC, cat. CRL-5824; RRID:CVCL_1529), NCI-H196 (ATCC, cat. CRL-5823, RRID:CVCL_1509), SW 1271 (ATCC, cat. CRL-2177, RRID:CVCL_1716) and NCI-H1876 (ATCC, cat. CRL-5902, RRID:CVCL_1503) small cell lung carcinomas, MDA-MB-231 (RRID:CVCL_0062) and MDA-MB-468 (RRID:CVCL_0419)breast carcinomas (10-12). Pooled donor human umbilical vein endothelial cells (HUVEC, Lonza, cat. CC-2519) and human mesenchymal stem cells (hMSC, Lonza, cat. PT-2501) were purchased from Lonza (Walkersville, MD).
Cell Culture. All cells were maintained in an incubator at 37 degrees C and 5% CO2 with 95% humidity. The PDC lines were cultured according to standard operating procedures established by the NCI PDMR (https://pdmr.cancer.gov). Briefly all PDCs were thawed and cultured in Matrigel-coated flasks prepared with a working solution of 1X Ham's F-12 nutrient mix, without supplementation (Invitrogen, Waltham, MA, cat. 11765054), 100 U/mL penicillin-streptomycin (Invitrogen, cat. 15140122), and 2.5% Matrigel (Corning Inc., Corning, NY, cat. 354248) for the first three passages. […]

Nc1ccccc1NC(=O)c1ccc(CNC(=O)OCc2cccnc2)cc1 + NC1CCC(NC2CC2c2ccccc2)CC1
IC50 (second compound 0.1 µM): 62.2 nM | IC50 (second compound 0.316 µM): 59.3 nM | IC50 (second compound 1 µM): 88.6 nM | IC50 (second compound 3.16 µM): 77.4 nM | IC50 (second compound 10 µM): 73.5 nM | viability, T/C (second compound 0.1 µM, first compound 0.00949 µM): 82.9% | viability, T/C (second compound 0.1 µM, first compound 0.03 µM): 66.6% | viability, T/C (second compound 0.1 µM, first compound 0.0949 µM): 41% | viability, T/C (second compound 0.1 µM, first compound 0.3 µM): 12% | viability, T/C (second compound 0.1 µM, first compound 0.949 µM): 0.32% | viability, T/C (second compound 0.1 µM, first compound 3 µM): 1.24% | viability, T/C (second compound 0.316 µM, first compound 0.00949 µM): 81.2% | viability, T/C (second compound 0.316 µM, first compound 0.03 µM): 69.3% | viability, T/C (second compound 0.316 µM, first compound 0.0949 µM): 36.4% | viability, T/C (second compound 0.316 µM, first compound 0.3 µM): 11.9% | viability, T/C (second compound 0.316 µM, first compound 0.949 µM): 0.27% | viability, T/C (second compound 0.316 µM, first compound 3 µM): 0.3% | viability, T/C (second compound 1 µM, first compound 0.00949 µM): 84.8% | viability, T/C (second compound 1 µM, first compound 0.03 µM): 73.3% | viability, T/C (second compound 1 µM, first compound 0.0949 µM): 49.9% | viability, T/C (second compound 1 µM, first compound 0.3 µM): 12.2% | viability, T/C (second compound 1 µM, first compound 0.949 µM): 0.24% | viability, T/C (second compound 1 µM, first compound 3 µM): 0.35% | viability, T/C (second compound 3.16 µM, first compound 0.00949 µM): 85.3% | viability, T/C (second compound 3.16 µM, first compound 0.03 µM): 78.9% | viability, T/C (second compound 3.16 µM, first compound 0.0949 µM): 43.4% | viability, T/C (second compound 3.16 µM, first compound 0.3 µM): 10.2% | viability, T/C (second compound 3.16 µM, first compound 0.949 µM): 0.27% | viability, T/C (second compound 3.16 µM, first compound 3 µM): 0.26% | viability, T/C (second compound 10 µM, first compound 0.00949 µM): 89.7% | viability, T/C (second compound 10 µM, first compound 0.03 µM): 73.6% | viability, T/C (second compound 10 µM, first compound 0.0949 µM): 44.3% | viability, T/C (second compound 10 µM, first compound 0.3 µM): 12.1% | viability, T/C (second compound 10 µM, first compound 0.949 µM): 1.12% | viability, T/C (second compound 10 µM, first compound 3 µM): 0.38%
